Measured values: patent publication US8920851B2, “Treatment of neurodegenerative diseases” (Velacor Therapeutics Pty Ltd, priority 2006, dated 2014)
“Also recorded” adds a separate entry of the source. Where two headings read alike, the source gives them in different places.

What was measured:
Akt = Akt phosphorylation by immunoblot in PC3 prostate carcinoma cells; format: cell-based, human; conditions: for Akt activation: ratio of phosphorylated Akt to total Akt versus control: serum starved PC3 cells, 500 μM, 1 hour, densitometry; for effect of hydrogen peroxide on sodium selenate induced reduction of Akt phosphorylation: sodium selenate 500 μM
Procedure: Such dephosphorylation may be the result of a direct inhibitory effect on the Akt protein itself, or alternatively, can be similarly achieved indirectly by boosting a negative regulator or inhibiting a positive regulator of Akt phosphorylation. […] PC3 prostate carcinoma cells were plated in 100 mm dishes, and when 70-80% confluent serum starved overnight. […] Cells were lysed, and the level of Akt Ser473 phosphorylation determined by immunoblot analysis with an activation specific antibody, and comparison made to levels of Akt protein expressed. To determine the effect on purified Akt, similarly plated but untreated PC3 cells were lysed in RIPA (minus phosphatase inhibitors), a stringent cell lysis buffer that minimizes maintenance of protein-protein complexes. […] The immunoprecipitated protein was then resolved and the level of activated Akt determined by immunoblot analysis as described above.
A reduction in net Akt activity could be achieved indirectly by either preventing the initial Akt phosphorylation, or alternatively, increasing Akt dephosphorylation [Kohn et. al. 1996]. […] Initially okadaic acid, a polyether toxin from red-tide algae (and causative agent of diarrhoetic shellfish poisoning) which inhibits the phospho-protein phosphatases PP1 and PP2A, two phosphatases implicated in the regulation of Akt dephosphorylation was used [Fernandez et al., 2002]. 5×10^5 PC3 prostate carcinoma cells were plated per well of a 6 well plate, allowed attach for 8 h, and then serum starved overnight. […] Lysed cells were resolved by SDS-PAGE, then probed for Akt phosphorylation at the Ser473 residue by immunoblot analysis with an antibody that specifically recognizes Akt when phosphorylated at this site, and comparison made with the total levels of Akt protein expressed (FIG. 2A).
This panel included tautamycin 500 nM (PP1), okadaic acid 500 nM (low dose PP2A>PP1), endothall A (PP2A) 100 μM, calyculin A 2 nM (low dose PP1>PP2A), calyculin A 10 nM (high dose inhibits PP1 and PP2A) and cyclosporine A 400 ng/ml (PP2B). […] Again, lysed cells were resolved by SDS-PAGE, then membranes probed for Akt phosphorylation at the Ser^473 residue by immunoblot analysis with an antibody that specifically recognizes Akt when phosphorylated at this site, and comparison made with the total levels of Akt protein expressed.
5×10^5 PC3 prostate carcinoma cells were plated per well in a 6-well plate, allowed to attach for 8 h, and then serum starved overnight. […] Equal amounts of whole cell lysates were resolved, and then subjected to immunoblot analysis to determine the level of phosphorylated Akt Ser^473. Comparison was then made with the total level of Akt protein expressed.
The phosphorylation status of Akt in whole cell lysates was determined using activation specific antibodies.
Other inorganic (sodium selenite, selenium dioxide, selenium sulphide and selenious acid) and organic (methylselenocysteine, selenocystine) selenium species were tested for their ability to affect Akt activation. All forms were dissolved in water with the exception of selenium sulphide which was solubilised in DMSO, and added to serum starved PC3 cells at a concentration of 500 μM for 1 hour, Whole cell lysates were then resolved, and the activation status of Akt determined by immunoblotting with an antibody that specifically recognizes Akt when phosphorylated at the Ser473 site, as well as the total level of Akt expression (pan Akt). To quantify the degree of Akt activation, immunoblots were digitalised, and the ratio of phosphorylated Akt to total Akt determined by densitometry.

p70S6K = format: cell-based, human; conditions: PC3 cells; LY294002 50 μM 1 hour, sodium selenate 500 μM 1 hour, okadaic acid 500 nM
Procedure: 5×10^5 PC3 prostate carcinoma cells were plated per well of a 6-well plate, allowed to attach for 8 hours, then serum starved overnight. […] Equal amounts of whole cell lysates (75 μg) were resolved by SDS-PAGE, and the level of p70S6K phosphorylation determined by immunoblot analysis with an antibody that specifically recognizes the p70S6K protein when phosphorylated on Thr389. Comparison is made with the protein loading control β tubulin.

[1] = target: T1, human PP2A A-C heterodimer (Homo sapiens, UniProt P67775); format: biochemical
T1 construct: purified PP2A A-C dimer purified from human red blood cells; purchased Upstate 14-111 (lot #28002); host or cells: human red blood cells (native purification)
Procedure: In initial assays a chemical substrate of phosphatase enzymatic action, para-nitrophennylphosphate (pNPP) was used, which following hydrolysis of the phosphate moiety generates para-nitrophenol, an intensely yellow chromogen which is soluble under alkaline conditions. […] Absorbance of each sample was measured in duplicate at 405 nm with 590 nm as a reference. PP2A activity was calculated using the following equation: activity=(sample vol in liters)×A405/1.78×104M^−1 cm^−1 (extinction coefficient)×0.25 cm×15 minutes×0.05 U enzyme Data is presented as mean relative phosphatase activity ±SEM from at least three independent experiments.
Para-nitrophennylphosphate (PNPP) is a chemical substrate of phosphatase enzymes, which following hydrolysis of the phosphate moiety generates para-nitrophenol, an intensely yellow chromogen, soluble under alkaline conditions. In assays measuring relative phosphatase activity, 0.05 U of purified PP2A was mixed with 5 μl of 40 mM NiCl2 and 5 μl of BSA solution (5 mg/ml) in a microcentrifuge tube. Various treatments were added as indicated, and the volume adjusted to 80 μl with pNPP assay buffer. Samples were pre-incubated at 37° C. for 15 min. pNPP substrate was freshly prepared before each assay by dissolving 1.5 mg/ml pNPP in 50 mM Tris-HCl, pH 7.0. To start the phosphatase reaction, 120 μl of pNPP substrate was added, and samples incubated for a further 15 min at 37° C. Absorbance of each sample was measured in duplicate at 405 nm with 590 nm as a reference. PP2A activity was calculated using the following equation: activity=(Sample volume in liters)×A405/1.78×10^4M^−1cm^−1 (Extinction coefficient)×0.25 cm×15 min×0.05 U enzyme.

[2] = target: T2, purified human PP2A A-C dimer (Homo sapiens, UniProt P67775); assay: Free sulfhydryl groups in purified PP2A (Ellman's assay); format: biochemical; conditions: 0.01 U PP2A, 10 mM of each agent, 15 min at 37° C.
T2 construct: purified PP2A A-C dimer purified from human red blood cells; purchased Upstate 14-111 (lot #28002); host or cells: human red blood cells (native purification)
Source text: Inactivating reversible oxidation of protein phosphatases involves the modification of a critical cysteine residue within the catalytic domain, ultimately leading to the formation of either intramolecular disulphide or sulphenyl-amide bonds. […] Ellman's reagent (5,5′-Dithio-bis(2-nitrobenzoic acid), DTNB) rapidly forms a disulphide bond with free sulfhydryl groups with the release of chromogenic thiolate ions. […] The quantity of free sulfhydryl groups present within the phosphatase was then determined by the addition of Ellman's reagent and subsequent measurement of absorbance at 412 nm (FIG. 5C).
The change in free sulfhydryl groups in purified PP2A following various treatments was determined using Ellman's Reagent. To 0.01 U of PP2A was added to 37.5 μl of dilution buffer (30 mM Tris-HCl, 3 mM EDTA, pH 8.2), 12.5 μl DTNB reagent (Ellman's reagent) and 200 μl of methanol. Samples were incubated for 5 min at RT, and then extinction measured in duplicate for each at 412 nm.

GSK-3β = GSK-3β Ser9 phosphorylation by immunoblot in PC3 cells; format: cell-based, human; conditions: densitometry, sodium selenate 500 μM 3 h, LY294002 50 μM 1 h
Source text: The metabolic effects of insulin on glycogen synthesis are mediated by glycogen synthase kinase-3 (GSK-3), a direct downstream substrate of Akt. GSK-3 is a ubiquitously expressed serine/threonine kinase that phosphorylates and inactivates glycogen synthase. In response to activation of the insulin receptor, Akt phosphorylates and inactivates the repressor GSK-3, thereby stimulating glycogen synthesis [Cross et al., 1995]. […] Resolved whole cell lysates were subjected to immunoblot analysis with an antibody that specifically recognizes GSK-3β only when phosphorylated at Ser9, a site critical for its kinase activity, and comparison made with the cytoskeletal protein β-tubulin as a loading control.

[3] = system: PC3 prostate carcinoma cells; assay: Intracellular redox state assay (DCFDA, flow cytometry)
Procedure: 1×10^6 PC3 prostate carcinoma cells were plated in 60 mm dishes, allowed to attach for 8 h, and serum starved overnight. Cells were incubated with DCFDA 5 μM for 15 min prior to treatment.
The proportion of fluorescent cells was then determined by flow cytometry.
Intracellular redox state was determined using 2′,7′-dichlorodihydrofluorescein diacetate (DCFDA). […] Cells were equilibrated with 5 μM of DCFDA for 15 min prior to various treatments. Adherent cells were then harvested, washed twice with PBS and the proportion of fluorescent cells determined immediately by flow cytometry.

PP2A A-C dimer = target: T3, PP2A A-C dimer (Homo sapiens, UniProt P67775); assay: Phosphopeptide / malachite green assay with purified PP2A; format: biochemical; conditions: 50 μM of each selenium compound
T3 construct: purified PP2A A-C dimer purified from human red blood cells; purchased Upstate 14-111 (lot #28002); host or cells: human red blood cells (native purification)
Procedure: The amount of inorganic phosphate released by enzymatic activity was determined by the addition of malachite green, and absorbance read at 590 nm. Malachite green forms a stable green complex in the presence of molybdate and orthophosphate, allowing the concentration of inorganic phosphate present to be measured. Data is presented as mean absorbance at 590 nm from at least three independent experiments, ±SEM.
1 mg of synthetic phosphopeptides K-R-pT-I-R-R (Upstate #12-219) and R-R-A-pS-V-A (Upstate #12-220) were dissolved in 1.10-1.285 ml of dH2O to prepare a 1 mM solution, then aliquoted and stored at −20° C. until use. 0.01-0.05 U of purified PP2A A-C dimer purified from human red blood cells, or 0.05 U of rabbit PP1 purified from skeletal muscle was mixed with 500 μM of phosphopeptide and incubated in the presence of various treatments as indicated at 37° C. on a heating block for 15 min. Each reaction was made up to a total volume of 25 μl with pNPP buffer (50 mM Tris-HCl, pH 7.0, 100 μM CaCl2). The enzyme reaction was terminated by adding 100 μl of malachite green solution (0.034% malachite green in 10 mM ammonium molybdate, 1 N HCl, 3.4% ethanol, 0.01% Tween-20). Malachite green forms a stable green complex in the presence of molybdate and orthophosphate, allowing the amount of inorganic phosphate present to be measured. Absorbance was read in duplicate for each sample at 590 nm.

PP2A = target: T4, PP2A (Homo sapiens, UniProt P67775); assay: PP2A immunoprecipitation from treated PC3 cells and phosphatase assay; format: cell-based; conditions: PC3 cells treated 1 hour; sodium selenate 500 μM, endothall A 100 μM
T4 construct: the phosphatase activity of the general pool of intracellular PP2A; endogenous in cells; host or cells: PC3 prostate carcinoma cells
T4 sequence (P67775 whole entry): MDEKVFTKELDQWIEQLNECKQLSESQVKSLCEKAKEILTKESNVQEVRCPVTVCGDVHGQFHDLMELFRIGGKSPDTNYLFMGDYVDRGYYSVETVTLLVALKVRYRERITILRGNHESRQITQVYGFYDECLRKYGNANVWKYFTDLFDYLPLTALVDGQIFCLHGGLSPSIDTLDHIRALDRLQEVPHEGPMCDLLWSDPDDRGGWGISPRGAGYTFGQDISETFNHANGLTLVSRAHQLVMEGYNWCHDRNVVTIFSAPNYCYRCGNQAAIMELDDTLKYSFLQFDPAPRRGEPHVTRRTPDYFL
T4 sequence (P30153 2-589 partner limits assumed): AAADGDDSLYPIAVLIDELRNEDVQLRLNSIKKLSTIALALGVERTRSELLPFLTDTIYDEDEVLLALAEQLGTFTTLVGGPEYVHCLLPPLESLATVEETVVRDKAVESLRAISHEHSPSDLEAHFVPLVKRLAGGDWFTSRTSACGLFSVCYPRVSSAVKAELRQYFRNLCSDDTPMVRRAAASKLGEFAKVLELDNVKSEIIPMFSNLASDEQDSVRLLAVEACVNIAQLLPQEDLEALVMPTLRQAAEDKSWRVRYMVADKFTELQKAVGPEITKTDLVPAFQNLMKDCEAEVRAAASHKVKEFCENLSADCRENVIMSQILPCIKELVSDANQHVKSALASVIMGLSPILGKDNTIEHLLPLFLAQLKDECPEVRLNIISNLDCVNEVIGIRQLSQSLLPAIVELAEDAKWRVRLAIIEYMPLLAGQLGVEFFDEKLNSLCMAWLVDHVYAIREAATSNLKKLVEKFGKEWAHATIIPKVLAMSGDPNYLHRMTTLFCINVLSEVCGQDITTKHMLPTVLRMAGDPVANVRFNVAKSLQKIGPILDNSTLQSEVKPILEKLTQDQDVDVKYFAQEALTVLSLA
Procedure: Free phosphate was removed by passing cell lysates through desalting columns, and measured phosphatase activity using a phosphor-serine peptide and malachite green.
1×10^6 PC3 cells were plated in 60 mm plates and allowed attach for 8 h, then serum starved over night. Following various treatments as indicated, the media was aspirated and cells washed once with TBS. Cells were lysed in 0.3 ml of lysis buffer (20 mM Tris-HCl, pH 7.0, 1% Igepal-CA, 2 mM EDTA, 2 mM EGTA, 1× Complete Protease Inhibitor Cocktail) and phosphates removed by passing the lysate through a 2 ml Zeba Desalt Spin Column (Pierce #89890). Protein concentration of the desalted lysate was determined by the BCA assay as previously described. 100-150 μg of total protein was immunoprecipitated with 4 μg of anti-PP2A monoclonal antibody and 30 μl of Protein A-sepharose slurry at 4° C. for 2 h. Samples were then pelleted at 14,000 rpm for 1 min, washed three times in excess TBS and once with pNPP assay buffer. After the final spin all of the supernatant was carefully removed and 500 μM of phosphor-threonine peptide in a final volume of 80 μl added to the beads. Samples were incubated at 30° C. for 10 min with agitation, and the reaction terminated by the addition of malachite green solution. Absorbance was read at 590 nm for each sample in duplicate.

T1 sequence (P67775 whole entry): as the sequence (P67775 whole entry) above
T1 sequence (P30153 2-589 partner limits assumed): as the sequence (P30153 2-589 partner limits assumed) above
T2 sequence (P67775 whole entry): as the sequence (P67775 whole entry) above
T2 sequence (P30153 2-589 partner limits assumed): as the sequence (P30153 2-589 partner limits assumed) above
T3 sequence (P67775 whole entry): as the sequence (P67775 whole entry) above
T3 sequence (P30153 2-589 partner limits assumed): as the sequence (P30153 2-589 partner limits assumed) above

C=C1[C@@H](O)[C@@H]2O[C@]3(CC[C@H](/C=C/[C@@H](C)[C@@H]4CC(C)=C[C@@]5(O[C@H](C[C@@](C)(O)C(=O)O)CC[C@H]5O)O4)O3)CC[C@H]2O[C@@H]1[C@@H](O)C[C@H](C)[C@H]1O[C@@]2(CCCCO2)CC[C@H]1C [okadaic acid]
effect of PPP inhibitor pretreatment on sodium selenate induced Akt Ser473 dephosphorylation (Akt; PC3 cells, inhibitor 30 min (okadaic acid 500 nM, endothall A 100 μM, tautamycin 500 nM, calyculin A 2 nM, cyclosporine A 400 ng/ml), then sodium selenate 500 μM 1 h): completely blocked sodium selenate induced Akt dephosphorylation
effect of pretreatment on the sodium selenate induced reduction of Akt phosphorylation (Akt; PC3 cells, okadaic acid 5 nM 30 min, then sodium selenate 500 μM 1 h): unaffected
Akt Ser473 phosphorylation in non-selenate controls (Akt; PC3 cells, okadaic acid 1000 nM): boosts Akt phosphorylation in non-selenate controls
effect of pretreatment on the sodium selenate induced reduction of Akt phosphorylation (Akt; PC3 cells, okadaic acid 1000 nM 30 min, then sodium selenate 500 μM 1 h): completely abolishes the inhibitory effect of sodium selenate
p70S6K phosphorylation on Thr389 (p70S6K): boosts the level of phosphorylation observed
PP2A phosphatase activity (pNPP) ([1]; 0.05 U PP2A dimer, 30 min at 37° C., sodium selenate 5 mM, okadaic acid 500 nM): completely abolished

S=[Se]=S [selenium sulfide]
Akt activation: ratio of phosphorylated Akt to total Akt versus control (Akt): induce activation of Akt above control (con) levels

CCN1C(=O)C=CC1=O [NEM, N-ethylmaleimide, reference compound]
number of free sulfhydryl groups in PP2A [2]: significantly reduced the number of free sulfhydryl groups

O=c1cc(N2CCOCC2)oc2c(-c3ccccc3)cccc12 [LY294002, reference compound]
reduction of GSK-3β phosphorylation levels (GSK-3β): ~60%

O=[Se](O)O [selenous acid]
Akt activation: ratio of phosphorylated Akt to total Akt versus control (Akt): induce activation of Akt above control (con) levels

OO [hydrogen peroxide]
effect of hydrogen peroxide on sodium selenate induced reduction of Akt phosphorylation (Akt; PC3 cells, hydrogen peroxide 0.25 mM for 10 min): unaffected
effect of hydrogen peroxide on sodium selenate induced reduction of Akt phosphorylation (Akt; PC3 cells, hydrogen peroxide 1 mM for 10 min): completely abolished the dephosphorylating effect of sodium selenate
number of free sulfhydryl groups in PP2A [2]: significantly reduced the number of free sulfhydryl groups
generation of intracellular oxygen free radicals ([3]; hydrogen peroxide 500 μM, 10 min): marked increase in the generation of intracellular oxygen free radicals

O=[Se]=O [selenium dioxide]
Akt activation: ratio of phosphorylated Akt to total Akt versus control (Akt): induce activation of Akt above control (con) levels

CC(=O)N[C@@H](CS)C(=O)O [NAC, N-acetylcysteine]
basal proportion of fluorescent cells (ROS) ([3]; 1 h, sodium selenate 500 μM, NAC 1 mM): small reduction in the basal proportion of fluorescent cells

N[C@@H](C[SeH])C(=O)O [selenocysteine]
Akt activation: ratio of phosphorylated Akt to total Akt versus control (Akt): induce activation of Akt above control (con) levels

C[Se]CC[C@H](N)C(=O)O [selenomethionine, reference compound]
PP2A phosphatase activity, serine phosphopeptide as substrate (PP2A A-C dimer): neither sodium selenite nor selenomethionine significantly affected PP2A phosphatase activity
Akt phosphorylation at Ser473 (Akt; PC3 cells, 500 μM of each compound, various timepoints): did not affect the level of Akt phosphorylation; also recorded: did not affect the level of phosphorylation of Akt
PP2A phosphatase activity, pNPP as substrate ([1]; 5 mM of each selenium compound): neither sodium selenite nor selenomethionine significantly affected PP2A phosphatase activity

O=C(O)[C@@H]1[C@H](C(=O)O)[C@H]2CC[C@@H]1O2 [endothall A, reference compound]
effect of PPP inhibitor pretreatment on sodium selenate induced Akt Ser473 dephosphorylation (Akt): completely blocked sodium selenate induced Akt dephosphorylation
phosphatase activity of immunoprecipitated PP2A (general intracellular pool) (PP2A): significantly reduced phosphatase activity
